The source of these data is patent publication US20210255193A1, “LYSINE REACTIVE PROBES AND USES THEREOF” (The Scripps Research Institute, priority 2017, published 2021).

Test in all cases: competitive isoTOP-ABPP
Format in all cases: binding

Test [1] deals with T1, G6PD Glucose-6-phosphate 1-dehydrogenase (Homo sapiens, UniProt P11413).
T1 construct: isoTOP-ABPP experiments performed in cell lysates (in vitro); endogenous in cells; host or cells: MDA-MB-231 soluble lysate
The method in brief: (§1)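 Cell lysate (0.5 ml) was pre-treated with fragment, 50 μM for activated esters or 100 μM for guanidinylating agents, versus DMSO, then labeled 1 h at ambient temperature with 0.1 mM STP-alkyne. Light/heavy TEV tags attached by CuAAC; R = DMSO/compound MS1 peak-area ratio, median per lysine.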

The target in test [2] is T2, NPEPPS Puromycin-sensitive aminopeptidase (Homo sapiens, UniProt P55786).
T2 construct: isoTOP-ABPP experiments performed in cell lysates (in vitro); endogenous in cells; host or cells: soluble proteome of human cancer cell lines (MDA-MB-231, Ramos, Jurkat)
An outline of the steps:
as §1

A further test addresses T3, EEF2 Elongation factor 2 (Homo sapiens, UniProt P13639).
T3 construct: isoTOP-ABPP experiments performed in cell lysates (in vitro); endogenous in cells; host or cells: soluble proteome of human cancer cell lines (MDA-MB-231; Ramos and Jurkat also prepared)
The method in brief: as §1

Test [3] concerns the target T4, AP1G1 AP-1 complex subunit gamma-1 (Homo sapiens, UniProt O43747).
T4 construct: isoTOP-ABPP experiments performed in cell lysates (in vitro); endogenous in cells; host or cells: MDA-MB-231 soluble lysate
T4 sequence (O43747 1-822): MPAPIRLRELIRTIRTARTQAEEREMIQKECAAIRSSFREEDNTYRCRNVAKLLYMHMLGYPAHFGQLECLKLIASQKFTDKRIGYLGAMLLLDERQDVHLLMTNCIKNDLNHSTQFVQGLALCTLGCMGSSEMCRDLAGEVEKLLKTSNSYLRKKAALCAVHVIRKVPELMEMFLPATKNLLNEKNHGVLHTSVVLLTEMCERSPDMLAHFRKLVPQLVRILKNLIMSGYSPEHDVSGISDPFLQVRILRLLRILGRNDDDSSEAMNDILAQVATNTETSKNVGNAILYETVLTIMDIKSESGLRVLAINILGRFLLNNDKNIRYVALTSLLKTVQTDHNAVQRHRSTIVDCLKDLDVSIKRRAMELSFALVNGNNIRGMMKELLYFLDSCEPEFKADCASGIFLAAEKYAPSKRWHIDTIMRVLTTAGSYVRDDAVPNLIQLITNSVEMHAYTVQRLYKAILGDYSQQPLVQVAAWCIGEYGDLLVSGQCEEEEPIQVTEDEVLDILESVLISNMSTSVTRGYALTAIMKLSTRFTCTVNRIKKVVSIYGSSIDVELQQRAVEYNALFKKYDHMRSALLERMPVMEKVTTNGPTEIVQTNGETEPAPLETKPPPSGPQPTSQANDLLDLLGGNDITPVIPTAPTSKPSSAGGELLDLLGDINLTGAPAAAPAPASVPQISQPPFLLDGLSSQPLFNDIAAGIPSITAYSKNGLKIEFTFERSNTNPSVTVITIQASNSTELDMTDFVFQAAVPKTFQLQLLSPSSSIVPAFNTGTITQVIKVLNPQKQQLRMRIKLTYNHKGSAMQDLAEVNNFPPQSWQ
An outline of the steps:
as §1

T1 sequence (P11413 whole entry): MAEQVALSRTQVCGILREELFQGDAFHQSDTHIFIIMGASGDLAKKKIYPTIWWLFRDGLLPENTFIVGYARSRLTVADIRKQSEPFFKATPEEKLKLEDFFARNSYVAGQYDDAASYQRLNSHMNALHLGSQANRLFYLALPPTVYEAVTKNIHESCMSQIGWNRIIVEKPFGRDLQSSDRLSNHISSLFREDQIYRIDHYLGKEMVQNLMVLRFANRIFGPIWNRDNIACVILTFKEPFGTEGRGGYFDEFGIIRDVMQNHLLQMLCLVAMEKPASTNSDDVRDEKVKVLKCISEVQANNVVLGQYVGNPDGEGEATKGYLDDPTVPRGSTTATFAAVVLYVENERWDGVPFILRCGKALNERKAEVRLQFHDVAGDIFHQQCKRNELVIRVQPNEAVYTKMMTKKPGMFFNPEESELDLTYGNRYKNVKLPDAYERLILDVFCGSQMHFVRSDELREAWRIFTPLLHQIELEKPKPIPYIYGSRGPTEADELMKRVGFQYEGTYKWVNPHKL
T2 sequence (P55786 whole entry): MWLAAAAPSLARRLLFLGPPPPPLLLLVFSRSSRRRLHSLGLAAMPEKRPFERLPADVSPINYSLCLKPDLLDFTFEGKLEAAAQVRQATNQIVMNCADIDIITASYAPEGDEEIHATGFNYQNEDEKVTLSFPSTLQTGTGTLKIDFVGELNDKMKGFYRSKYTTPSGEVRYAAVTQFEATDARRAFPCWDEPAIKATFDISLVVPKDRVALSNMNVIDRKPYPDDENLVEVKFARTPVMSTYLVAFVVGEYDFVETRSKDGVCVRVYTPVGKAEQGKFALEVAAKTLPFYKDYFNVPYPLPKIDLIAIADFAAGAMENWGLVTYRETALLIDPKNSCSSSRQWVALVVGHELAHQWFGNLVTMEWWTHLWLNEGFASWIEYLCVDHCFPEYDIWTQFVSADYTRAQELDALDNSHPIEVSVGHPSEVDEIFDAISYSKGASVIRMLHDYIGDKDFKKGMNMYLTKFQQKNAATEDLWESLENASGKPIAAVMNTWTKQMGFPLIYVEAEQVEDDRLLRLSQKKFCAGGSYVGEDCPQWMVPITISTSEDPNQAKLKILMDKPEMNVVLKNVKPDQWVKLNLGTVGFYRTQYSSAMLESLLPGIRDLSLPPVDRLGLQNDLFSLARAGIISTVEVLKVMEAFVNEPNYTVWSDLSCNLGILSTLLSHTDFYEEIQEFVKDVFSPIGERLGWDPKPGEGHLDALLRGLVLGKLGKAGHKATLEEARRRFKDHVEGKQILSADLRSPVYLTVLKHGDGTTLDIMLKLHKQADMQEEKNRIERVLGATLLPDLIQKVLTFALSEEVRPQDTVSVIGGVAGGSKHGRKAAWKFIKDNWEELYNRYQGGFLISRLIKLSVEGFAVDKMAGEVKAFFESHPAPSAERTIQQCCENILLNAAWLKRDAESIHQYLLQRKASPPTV

For `CC(=O)Oc1ccc([N+](=O)[O-])cc1[N+](=O)[O-]` [fragment 43, 2,4-Dinitrophenyl acetate], the “isoTOP-ABPP ratio (R) at liganded lysine P11413_K171” value in test [1] (50 uM, in vitro, sol, 231) was 1.0. The “isoTOP-ABPP ratio (R) at liganded lysine P55786_K712” value in test [2] (50 uM, in vitro, sol, 231) amounted to 2.3. In addition, on EEF2 Elongation factor 2 (50 uM, in vitro, sol, 231), the “isoTOP-ABPP ratio (R) at liganded lysine P13639_K235” value is on record as 1.1 and the “isoTOP-ABPP ratio (R) at liganded lysine P13639_K318” value came out at 1.2. Besides, the “isoTOP-ABPP ratio (R) at liganded lysine O43747_K214” value in test [3] (50 uM, in vitro, sol, 231) is 1.1.

`N#Cc1ccc(C(=O)Oc2ccc([N+](=O)[O-])cc2[N+](=O)[O-])cc1` [fragment 44, 2,4-Dinitrophenyl 4-cyanobenzoate]: the “isoTOP-ABPP ratio, lysine P11413_K171” value in test [1] (50 uM_231_sol_in vitro) was 1.3. In test [2] (50 uM_231_sol_in vitro), the “isoTOP-ABPP ratio, lysine P55786_K712” value is given as 1.0. Also, on EEF2 Elongation factor 2 (50 uM_231_sol_in vitro), the “isoTOP-ABPP ratio, lysine P13639_K235” value was 1.0 and the “isoTOP-ABPP ratio, lysine P13639_K318” value amounted to 1.1. In test [3] (50 uM_231_sol_in vitro), the “isoTOP-ABPP ratio, lysine O43747_K214” value came to 0.9.

For `O=C(CCc1ccc2c(c1)OCO2)Oc1ccc([N+](=O)[O-])cc1[N+](=O)[O-]` [fragment 45, 2,4-Dinitrophenyl 3-(benzo[d][1,3]dioxol-5-yl)propanoate], the “isoTOP-ABPP ratio, lysine P11413_K171” value in test [1] (50 uM_231_sol_in vitro) was 1.1. The “isoTOP-ABPP ratio, lysine P55786_K712” value in test [2] (50 uM_231_sol_in vitro) came to 1.3. Further, at EEF2 Elongation factor 2 (50 uM_231_sol_in vitro), the “isoTOP-ABPP ratio, lysine P13639_K235” value amounted to 1.0 and the “isoTOP-ABPP ratio, lysine P13639_K318” value stood at 1.0. The “isoTOP-ABPP ratio, lysine O43747_K214” value in test [3] (50 uM_231_sol_in vitro) turned out to be 1.2.

Take `O=C(ON1C(=O)CCC1=O)c1cc(C(F)(F)F)cc(C(F)(F)F)c1` [fragment 46, 3,5-Bis(trifluoromethyl)benzoic acid NHS ester]: the “isoTOP-ABPP ratio, lysine P11413_K171” value in test [1] (50 uM_231_sol_in vitro) worked out at 0.9. Also, the “isoTOP-ABPP ratio, lysine P55786_K712” value in test [2] (50 uM_231_sol_in vitro) came out at 1.3. Further, on EEF2 Elongation factor 2 (50 uM_231_sol_in vitro), the “isoTOP-ABPP ratio, lysine P13639_K235” value is 1.3 and the “isoTOP-ABPP ratio, lysine P13639_K318” value is 1.1. Moreover, in test [3] (50 uM_231_sol_in vitro), the “isoTOP-ABPP ratio, lysine O43747_K214” value amounted to 1.0.

Consider `O=C(Oc1c(F)c(F)c(C(F)(F)F)c(F)c1F)c1cc(C(F)(F)F)cc(C(F)(F)F)c1` [fragment 47, 2,3,5,6-Tetrafluoro-4-(trifluoromethyl)phenyl 3,5-bis(trifluoromethyl)benzoate], for which the “isoTOP-ABPP ratio, lysine P11413_K171” value in test [1] (50 uM_231_sol_in vitro) came out at 1.0. Further, the “isoTOP-ABPP ratio, lysine P55786_K712” value in test [2] (50 uM_231_sol_in vitro) was determined as 1.0. For the same molecule, at EEF2 Elongation factor 2 (50 uM_231_sol_in vitro), the “isoTOP-ABPP ratio, lysine P13639_K235” value is on record as 1.1 and the “isoTOP-ABPP ratio, lysine P13639_K318” value was found to be 1.1. Moreover, the “isoTOP-ABPP ratio, lysine O43747_K214” value in test [3] (50 uM_231_sol_in vitro) is listed as 0.8.

Turning to `O=C(Oc1c(F)c(F)cc(F)c1F)c1cc(C(F)(F)F)cc(C(F)(F)F)c1` [fragment 48, 2,3,5,6-Tetrafluorophenyl 3,5-bis(trifluoromethyl)benzoate], the “isoTOP-ABPP ratio, lysine P11413_K171” value in test [1] (50 uM_231_sol_in vitro) stood at 0.9. Also, the “isoTOP-ABPP ratio, lysine P55786_K712” value in test [2] (50 uM_231_sol_in vitro) came out at 1.0. Moreover, on EEF2 Elongation factor 2 (50 uM_231_sol_in vitro), the “isoTOP-ABPP ratio, lysine P13639_K235” value is recorded as 1.2 and the “isoTOP-ABPP ratio, lysine P13639_K318” value is given as 1.1. For the same molecule, the “isoTOP-ABPP ratio, lysine O43747_K214” value in test [3] (50 uM_231_sol_in vitro) is on record as 0.8.

As for `COC(=O)NC(=NC(=O)OCC1c2ccccc2-c2ccccc21)n1cccn1` [fragment 49, N-Methoxycarbonyl-N′-9-fluorenylmethoxycarbonyl-pyrazole-1-carboxamidine], the “isoTOP-ABPP ratio, lysine P11413_K171” value in test [1] (100 uM_231_sol_in vitro) was 1.2. For the same molecule, in test [2] (100 uM_231_sol_in vitro), the “isoTOP-ABPP ratio, lysine P55786_K712” value came out at 1.3. At EEF2 Elongation factor 2 (100 uM_231_sol_in vitro), the “isoTOP-ABPP ratio, lysine P13639_K235” value was determined as 6.2 and the “isoTOP-ABPP ratio, lysine P13639_K318” value is given as 2.0. The “isoTOP-ABPP ratio, lysine O43747_K214” value in test [3] (100 uM_231_sol_in vitro) turned out to be 1.0.

For the molecule `CC(C)(C)OC(=O)N=C(NC(=O)OC(C)(C)C)n1cccn1` [fragment 50, reference compound], the “isoTOP-ABPP ratio, lysine P11413_K171” value in test [1] (100 uM_231_sol_in vitro) was 1.1. In test [2] (100 uM_231_sol_in vitro), the “isoTOP-ABPP ratio, lysine P55786_K712” value is 1.6. Besides, on EEF2 Elongation factor 2 (100 uM_231_sol_in vitro), the “isoTOP-ABPP ratio, lysine P13639_K235” value amounted to 7.5 and the “isoTOP-ABPP ratio, lysine P13639_K318” value turned out to be 1.8. Moreover, in test [3] (100 uM_231_sol_in vitro), the “isoTOP-ABPP ratio, lysine O43747_K214” value was 1.0.

For `NC(=O)c1cc(C(F)(F)F)cc(C(F)(F)F)c1` [fragment 51, reference compound], the “isoTOP-ABPP ratio, lysine P11413_K171” value in test [1] (50 uM_231_sol_in vitro) is 0.9. In addition, the “isoTOP-ABPP ratio, lysine P55786_K712” value in test [2] (50 uM_231_sol_in vitro) is reported as 1.0. In addition, on EEF2 Elongation factor 2 (50 uM_231_sol_in vitro), the “isoTOP-ABPP ratio, lysine P13639_K235” value is given as 0.9 and the “isoTOP-ABPP ratio, lysine P13639_K318” value worked out at 0.9. The “isoTOP-ABPP ratio, lysine O43747_K214” value in test [3] (50 uM_231_sol_in vitro) came out at 0.9.
